Results as given in patent publication US8350015B2, “Cyanine dye” (Kabushiki Kaisha Hayashibara Seibutsu Kagaku Kenkyujo, priority 2004, dated 2013).

Experiment: Optical resistance of cyanine dye thin membrane exposed to xenon lamp
Format: physicochemical
Details: xenon lamp 180 W/m^2, exposure 5.5 hours
Protocol: The resulting solution was poured dropwise on one side of a polished glass plate (5 cm×5 cm) and homogenously spread over the surface of the plate by turning the plate at 1,000 rpm for one minute. Successively, thin membrane of the cyanine dye in this invention was formed on the glass plate by drying in the ventilation of warm and cooled air in this order. Immediately after determining optical transmittance (T0) of the cyanine dye in the form of thin membrane at absorption maximum (about 450 nm) wavelength, the membrane was exposed to xenon lamp (light-irradiation energy of 180 W/m^2 on the plate surface) in the ventilation of cooled air while placing […] xenon lamp with a prescribed distance away from the glass plate, after which the membrane was immediately determined for optical transmittance (T) at absorption maximum wavelength. Thereafter, residual dye rate (%) was calculated by substituting the obtained optical transmittances (T and T0) to Formula 1. In parallel, another thin membrane formed by cyanine dye represented by Chemical Formula 14 (Control 1), a additional thin membrane formed by cyanine dye represented by Chemical Formula 16 (Control 2), a further thin membrane formed by cyanine dye represented by Chemical Formula 14 and an equimolar azometallic complex represented by Chemical Formula 15 as an optical resistance-improving agent (Control 3), and one more additional thin membrane formed by cyanine dye represented by Chemical Formula 16 and an equimolar azometallic complex represented by Chemical Formula 15 as an optical resistance-improving agent (Control 4) were determined for optical resistance similarly as above.

[1] = thin membrane on glass plate, no optical resistance-improving agent, transmittance at absorption maximum (about 450 nm)
[2] = thin membrane with equimolar azometallic complex Chemical Formula 15 as optical resistance-improving agent

CN1C(=CC2=[N+](C)c3ccccc3C2(C)C)C(C)(C)c2ccccc21 [Chemical Formula 14]
Residual dye rate (%) [1]: 29.3%
Residual dye rate (%) [2]: 91.7%

CN1C(=CC2=[N+](C)c3ccc4ccccc4c3C2(C)C)C(C)(C)c2c1ccc1ccccc21 [Chemical Formula 16]
Residual dye rate (%) [1]: 30.1%
Residual dye rate (%) [2]: 92.2%
